Source: patent US20240270821A1, “GIP/GLP1/GCG TRI-RECEPTOR AGONISTS AND USES THEREOF” (priority 2023, published 2024)
Like-named read-outs stand apart in the source and are kept apart here. Starred links: 1 amine or outer side, 2 acyl side, 3 side chain; linkers in the order of their positions; H or OH if unused. Non-standard residues stand in square brackets, D forms with d. Groups on a side chain read outwards from the residue. *: point of attachment. C18 diacid = O=C(O)CCCCCCCCCCCCCCCCC(=O)*; αMePhe(2-F) = C[C@](N)(Cc1ccccc1F)C(=O)O; γGlu = O=C(O)[C@H](CCC(=O)[*:2])N[*:1]; αMe4Pal = C[C@](N)(Cc1ccncc1)C(=O)O; αMeY = C[C@](N)(Cc1ccc(O)cc1)C(=O)O; 4Pal = N[C@@H](Cc1ccncc1)C(=O)O; αMeL = CC(C)C[C@](C)(N)C(=O)O; Orn = NCCC[C@H](N)C(=O)O; AEEA = NCCOCCOCC(=O)O; Aib = CC(C)(N)C(=O)O

Experiments:
Format in all cases: cell-based
hGLP-1R [1] = target: T1, hGLP-1R (Homo sapiens, UniProt P43220); experiment: Functional cAMP activity in the presence of 1% HSA; conditions: read-out: cAMP Rel EC50, hGLP-1R
hGIPR [2] = target: T2, hGIPR (Homo sapiens, UniProt P48546); experiment: Functional cAMP activation in the presence of 0.1% casein (no HSA); conditions: read-out: Relative cAMP EC50, hGIPR;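 note: intracellular cAMP rise after 30 min at 37 °C read by HTRF against a standard curve, scaled between buffer alone (0%) and top control ligand concentration (100%), four-parameter fit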
T2 sequence (P48546 22-466): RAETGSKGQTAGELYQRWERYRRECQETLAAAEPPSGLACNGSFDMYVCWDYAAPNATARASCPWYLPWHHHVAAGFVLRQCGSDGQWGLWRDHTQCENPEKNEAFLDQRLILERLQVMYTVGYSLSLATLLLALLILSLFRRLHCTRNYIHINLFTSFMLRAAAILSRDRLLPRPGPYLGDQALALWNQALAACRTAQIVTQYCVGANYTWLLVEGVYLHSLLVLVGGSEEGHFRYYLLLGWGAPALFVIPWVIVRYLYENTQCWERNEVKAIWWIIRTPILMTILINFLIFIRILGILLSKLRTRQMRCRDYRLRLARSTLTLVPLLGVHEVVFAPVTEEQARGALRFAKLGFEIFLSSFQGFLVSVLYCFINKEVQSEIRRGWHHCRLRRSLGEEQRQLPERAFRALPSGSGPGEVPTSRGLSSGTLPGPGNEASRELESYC

hGLP-1R [3] = target: T1, hGLP-1R; experiment: as above; conditions: read-out: Relative cAMP EC50, hGLP-1R
Procedure: After a 30-minute incubation at 37° C., the resulting increase in intracellular cAMP is quantitatively determined using the CisBio CAMP Dynamic 2 HTRF Assay Kit (62AM4PEJ). Briefly, cAMP levels within the cell are detected by adding the cAMP-d2 conjugate in cell lysis buffer followed by the antibody anti-cAMP-Eu^3+-Cryptate, also in cell lysis buffer.
Intracellular cAMP levels are determined by extrapolation using a standard curve. Dose response curves of compounds are plotted as the percentage of stimulation normalized to minimum (buffer only) and maximum (maximum concentration of each control ligand) values and analyzed using a four parameter non-linear regression fit with a variable slope (Genedata Screener 13). EC50 is the concentration of compound causing half-maximal simulation in a dose response curve. Each relative EC50 value for the Geometric mean calculation is determined from a curve fitting.

hGcgR = hGcgR (Homo sapiens, UniProt P47871); experiment: as above; conditions: read-out: Relative cAMP EC50, hGcgR;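 note: intracellular cAMP rise after 30 min at 37 °C, read by HTRF against a cAMP standard curve, scaled from buffer only (0%) to maximal control ligand response (100%)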
human GcgR = human GcgR (Homo sapiens, UniProt P47871); experiment: Functional cAMP activity in the presence of 1% HSA; conditions: read-out: cAMP Rel EC50, hGcgR
hGIPR [4] = target: T2, hGIPR; experiment: Functional cAMP activity in the presence of 1% HSA; conditions: read-out: cAMP Rel EC50, hGIPR
[5] = in the presence of 0.1% casein (no HSA), geometric mean
[6] = 0.1% casein, no HSA, geometric mean
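Throughout, for Relative cAMP EC50, hGLP-1R: intracellular cAMP rise after 30 min at 37 °C read by HTRF, normalized between buffer only (0%) and maximal control ligand (100%), four-parameter variable-slope fit.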

T1 sequence (P43220 24-463): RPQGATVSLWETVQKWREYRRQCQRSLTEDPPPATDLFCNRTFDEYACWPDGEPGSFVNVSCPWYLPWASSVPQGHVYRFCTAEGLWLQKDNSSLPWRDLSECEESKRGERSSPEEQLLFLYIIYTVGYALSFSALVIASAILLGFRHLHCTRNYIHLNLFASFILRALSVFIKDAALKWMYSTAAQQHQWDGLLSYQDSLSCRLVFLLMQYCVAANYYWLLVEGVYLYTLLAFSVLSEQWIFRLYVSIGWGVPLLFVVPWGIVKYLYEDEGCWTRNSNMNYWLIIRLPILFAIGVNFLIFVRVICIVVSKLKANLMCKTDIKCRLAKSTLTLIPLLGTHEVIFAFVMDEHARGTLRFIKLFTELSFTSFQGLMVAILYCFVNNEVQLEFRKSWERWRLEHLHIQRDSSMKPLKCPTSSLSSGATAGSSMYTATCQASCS
Sequence of human GcgR (P47871 26-477): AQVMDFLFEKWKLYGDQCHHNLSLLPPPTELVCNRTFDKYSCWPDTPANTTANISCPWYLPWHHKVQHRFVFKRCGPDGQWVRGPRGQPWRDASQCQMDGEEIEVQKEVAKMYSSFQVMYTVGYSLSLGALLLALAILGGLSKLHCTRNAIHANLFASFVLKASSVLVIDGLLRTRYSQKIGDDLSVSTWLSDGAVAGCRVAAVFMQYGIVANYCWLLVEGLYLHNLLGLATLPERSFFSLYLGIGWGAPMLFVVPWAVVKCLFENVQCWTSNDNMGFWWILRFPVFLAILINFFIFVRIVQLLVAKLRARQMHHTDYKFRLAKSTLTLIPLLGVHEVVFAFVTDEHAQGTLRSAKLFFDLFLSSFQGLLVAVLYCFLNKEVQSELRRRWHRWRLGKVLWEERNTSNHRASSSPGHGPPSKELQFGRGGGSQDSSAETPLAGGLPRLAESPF
Sequence of hGcgR (P47871 26-477): as above

Compound	EC50 (hGLP-1R [1])	EC50 (hGIPR [2])	EC50 (hGLP-1R [3])	EC50 (hGcgR)	EC50 (human GcgR)	EC50 (hGIPR [4])	EC50 (hGIPR [2]; [5])	EC50 (hGLP-1R [3]; [5])	EC50 (hGcgR; [5])	EC50 (hGIPR [2]; [6])	EC50 (hGLP-1R [3]; [6])	EC50 (hGcgR; [6])
H-Y[Aib]QGT[αMePhe(2-F)]TSD[4Pal]SILLDKK([γGlu-γGlu-C18 diacid])AQ[Aib]AFIEYLEEGGPSSGAPPPSGGEE-NH2 [Example 612]	126 nM	0.087 nM	1.21 nM	7.13 nM	640 nM	7.58 nM						
H-Y[Aib]QGTFTSDFS[Orn][αMeL]LDKK([γGlu-γGlu-C18 diacid])AQ[Aib]AFIEYLLE[Aib]GPSSGAPPPSGS-NH2 [Example 201]	679 nM				969 nM	14.3 nM	0.0553 nM	3.16 nM	3.84 nM			
H-Y[Aib]QGTFTSD[4Pal]SK[αMeL]LDKK([AEEA-γGlu-C18 diacid])AQ[Aib]AFIE[αMe4Pal]LIE[Aib]GPSSGAPPPSGS-NH2 [Example 914]	91.7 nM				983 nM	5.94 nM	0.0582 nM	0.888 nM	10.6 nM			
CC[C@H](C)[C@H](NC(=O)[C@H](CC(C)C)NC(=O)[C@](C)(Cc1ccc(O)cc1)NC(=O)[C@@H](CCC(=O)O)NC(=O)[C@@H](NC(=O)[C@H](Cc1ccccc1)NC(=O)[C@H](CCC(=O)O)NC(=O)[C@](C)(Cc1ccncc1)NC(=O)[C@H](CCC(N)=O)NC(=O)[C@H](C)NC(=O)[C@H](CCCCNC(=O)COCCOCCNC(=O)COCCOCCNC(=O)CC[C@H](NC(=O)CCCCCCCCCCCCCCCCC(=O)O)C(=O)O)NC(=O)[C@H](CCCN)NC(=O)[C@H](CC(=O)O)NC(=O)[C@H](CC(C)C)NC(=O)[C@](C)(CC(C)C)NC(=O)[C@@H](NC(=O)[C@](C)(CO)NC(=O)[C@H](Cc1ccncc1)NC(=O)[C@H](CC(=O)O)NC(=O)[C@H](CO)NC(=O)[C@@H](NC(=O)[C@](C)(Cc1ccccc1F)NC(=O)[C@@H](NC(=O)CNC(=O)[C@H](CCC(N)=O)NC(=O)C(C)(C)NC(=O)[C@@H](N)Cc1ccc(O)cc1)[C@@H](C)O)[C@@H](C)O)[C@@H](C)CC)[C@@H](C)CC)C(=O)N[C@@H](CCC(=O)O)C(=O)NCC(=O)NCC(=O)N1CCC[C@H]1C(=O)N[C@@H](CO)C(=O)N[C@@H](CO)C(=O)NCC(=O)N[C@@H](C)C(=O)N1CCC[C@H]1C(=O)N1CCC[C@H]1C(=O)N1CCC[C@H]1C(=O)N[C@@H](CO)C(=O)NCC(=O)N[C@@H](CO)C(N)=O [Example 1207]	39.8 nM				470 nM	0.633 nM				0.00647 nM	0.299 nM	7.71 nM
H-Y[Aib]QGT[αMePhe(2-F)]TSD[4Pal]SI[αMeL]LD[Orn]K([AEEA-γGlu-C18 diacid])AQ[Aib][Orn]FIEYLIEGGPSSGEPPPSEG-NH2 [Example 489]	11.8 nM	0.0121 nM	0.172 nM	2.31 nM	523 nM	1.25 nM						
H-Y[Aib]QGT[αMePhe(2-F)]TSD[4Pal]SILLDKK([AEEA-γGlu-C18 diacid])AQ[Aib]AFIEYLEEGGPSSGAPPPSGTGE-NH2 [Example 662]	84.5 nM	0.0704 nM	0.946 nM	4.81 nM	561 nM	4.69 nM						
H-Y[Aib]QGTFTSD[4Pal]S[Orn][αMeL]LDKK([AEEA-γGlu-γGlu-C18 diacid])AQ[αMe4Pal]AFIEYLIE[Aib]GPSSGAPPPSGS-NH2 [Example 867]	474 nM				242 nM	16.2 nM	0.216 nM	7.38 nM	2.47 nM			
H-Y[Aib]QGTFTSD[4Pal]SQ[αMeL]LD[Orn]K([AEEA-γGlu-C18 diacid])AQ[αMe4Pal]QFIE[αMeY]LIA[Aib]GPSSGEPPPSGSEE-NH2 [Example 1100]	77.2 nM				577 nM	9.04 nM	0.0694 nM	0.514 nM	5.28 nM			
